Experimental data published in ChEMBL document CHEMBL1201862, “PubChem BioAssay data set” (2004).
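Compound exposure: 48 hours, 5 concentrations, 96-well plates. Here, GI50 denotes the concentration required for 50% inhibition of growth.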 The source made the active and inactive calls. No stated cut-off is given here; in the data, active = GI50 up to about 1.1 µM and inactive = higher.

Tests used:
Assay in all cases: growth of human tumour cells (NCI), 48 h
A549 = tested on: A549
ACHN = tested on: ACHN
BT-549 = tested on: BT-549
EKVX = tested on: EKVX
HCC 2998 = tested on: HCC 2998
KM12 = tested on: KM12
MCF7 = tested on: MCF7
MDA-MB-435 = tested on: MDA-MB-435
NCI-H522 = tested on: NCI-H522
NCI/ADR-RES = tested on: NCI/ADR-RES
OVCAR-4 = tested on: OVCAR-4
SF-295 = tested on: SF-295
SN12C = tested on: SN12C
SW-620 = tested on: SW-620
T47D = tested on: T47D
TK-10 = tested on: TK-10
U-251 = tested on: U-251
UACC-62 = tested on: UACC-62
HOP-92 = tested on: HOP-92
SR = tested on: SR

Row | SMILES | GI50 (A549) | GI50 (ACHN) | GI50 (BT-549) | GI50 (EKVX) | GI50 (HCC 2998) | GI50 (KM12) | GI50 (MCF7) | GI50 (MDA-MB-435) | GI50 (NCI-H522) | GI50 (NCI/ADR-RES) | GI50 (OVCAR-4) | GI50 (SF-295) | GI50 (SN12C) | GI50 (SW-620) | GI50 (T47D) | GI50 (TK-10) | GI50 (U-251) | GI50 (UACC-62) | GI50 (HOP-92) | GI50 (SR)
1 | Cc1ccc2c(O)cc(-c3cc4ccccc4s3)nc2n1 | > 100 µM (inactive) | 47.6 µM (inactive) | > 100 µM (inactive) | 27.4 µM (inactive) | > 100 µM (inactive) | > 73.1 µM (inactive) | 17.7 µM (inactive) | > 88.1 µM (inactive) | 33.9 µM (inactive) | > 57.7 µM (inactive) | > 75 µM (inactive) | 40.1 µM (inactive) | > 100 µM (inactive) | > 100 µM (inactive) | 2.13 µM (inactive) | > 95.9 µM (inactive) | > 100 µM (inactive) | > 68.7 µM (inactive) | – | –
2 | CCOC(=O)c1c(NCc2ccccc2)n(-c2ccccc2)c(=S)n(-c2ccccc2)c1=O | 91.6 µM (inactive) | > 100 µM (inactive) | 36.9 µM (inactive) | – | > 100 µM (inactive) | > 100 µM (inactive) | 53.3 µM (inactive) | > 100 µM (inactive) | 57.8 µM (inactive) | – | 98.6 µM (inactive) | 49.4 µM (inactive) | > 100 µM (inactive) | > 100 µM (inactive) | 66.4 µM (inactive) | > 100 µM (inactive) | > 100 µM (inactive) | 94.8 µM (inactive) | > 100 µM (inactive) | 33.7 µM (inactive)
3 | COc1cc([C@@H]2c3cc4c(cc3[C@@H](c3c(O)cc(O)c5c3O[C@H](c3ccc(O)c(O)c3)[C@@H](O)C5)[C@H]3COC(=O)[C@H]23)OCO4)cc(OC)c1OC | 29.9 µM (inactive) | 1.78 µM (inactive) | > 100 µM (inactive) | 50.1 µM (inactive) | 1.8 µM (inactive) | 1.76 µM (inactive) | 1.72 µM (inactive) | 1.75 µM (inactive) | 14.1 µM (inactive) | 46 µM (inactive) | 1.8 µM (inactive) | 1.85 µM (inactive) | 32.2 µM (inactive) | 32 µM (inactive) | 2.24 µM (inactive) | 1.79 µM (inactive) | 1.69 µM (inactive) | 1.72 µM (inactive) | > 100 µM (inactive) | –
4 | O=C(N/N=C/c1ccccc1)c1cccc2nc3ccccc3nc12 | 3.81 µM (inactive) | > 100 µM (inactive) | > 58.2 µM (inactive) | > 39.3 µM (inactive) | – | 54 µM (inactive) | > 45 µM (inactive) | 65 µM (inactive) | 44.8 µM (inactive) | > 100 µM (inactive) | > 100 µM (inactive) | 17.1 µM (inactive) | > 87.9 µM (inactive) | > 100 µM (inactive) | > 100 µM (inactive) | > 100 µM (inactive) | > 100 µM (inactive) | > 100 µM (inactive) | > 69.2 µM (inactive) | > 100 µM (inactive)
5 | COc1cc(C2c3c(ccc4ccccc34)C(=O)C3CCC(=O)N32)cc(OC)c1O (stereo not given) | > 25 µM (inactive) | > 25 µM (inactive) | > 25 µM (inactive) | > 25 µM (inactive) | – | > 25 µM (inactive) | > 25 µM (inactive) | > 25 µM (inactive) | – | > 25 µM (inactive) | > 25 µM (inactive) | > 25 µM (inactive) | > 25 µM (inactive) | > 25 µM (inactive) | > 25 µM (inactive) | – | > 25 µM (inactive) | > 25 µM (inactive) | > 25 µM (inactive) | > 25 µM (inactive)
6 | COc1ccccc1N1CCN(S(=O)(=O)c2ccc(Cl)cc2)C1=N | 34.2 µM (inactive) | 48.9 µM (inactive) | > 100 µM (inactive) | 26.9 µM (inactive) | – | 82.4 µM (inactive) | 52.2 µM (inactive) | 45.9 µM (inactive) | 40.5 µM (inactive) | 61.2 µM (inactive) | 87.9 µM (inactive) | > 100 µM (inactive) | > 100 µM (inactive) | 64.6 µM (inactive) | 68.7 µM (inactive) | 60.7 µM (inactive) | 37.5 µM (inactive) | 26.3 µM (inactive) | – | –
7 | CCOC(=O)C1CN(C2CC2)CCC1=O (stereo not given) | > 100 µM (inactive) | > 100 µM (inactive) | > 100 µM (inactive) | > 100 µM (inactive) | > 100 µM (inactive) | > 100 µM (inactive) | > 100 µM (inactive) | > 100 µM (inactive) | – | > 100 µM (inactive) | > 100 µM (inactive) | > 100 µM (inactive) | > 100 µM (inactive) | > 100 µM (inactive) | > 100 µM (inactive) | > 100 µM (inactive) | > 100 µM (inactive) | > 100 µM (inactive) | – | > 100 µM (inactive)
8 | CCOC(=O)c1cn(CC)c2ccc3c(c2c1=O)S(=O)(=O)C=C3 | > 100 µM (inactive) | > 100 µM (inactive) | > 100 µM (inactive) | > 100 µM (inactive) | > 100 µM (inactive) | > 100 µM (inactive) | > 100 µM (inactive) | > 100 µM (inactive) | > 100 µM (inactive) | > 100 µM (inactive) | > 100 µM (inactive) | > 100 µM (inactive) | > 100 µM (inactive) | > 100 µM (inactive) | > 100 µM (inactive) | > 100 µM (inactive) | > 100 µM (inactive) | > 100 µM (inactive) | > 100 µM (inactive) | –
9 | CC(NC(=O)C(N)CC(=O)O)NC(=O)N1CCCC1 (stereo not given) | > 100 µM (inactive) | > 100 µM (inactive) | > 100 µM (inactive) | > 100 µM (inactive) | > 100 µM (inactive) | > 100 µM (inactive) | > 100 µM (inactive) | > 100 µM (inactive) | > 100 µM (inactive) | > 100 µM (inactive) | > 100 µM (inactive) | > 100 µM (inactive) | > 100 µM (inactive) | > 100 µM (inactive) | > 100 µM (inactive) | > 100 µM (inactive) | > 100 µM (inactive) | > 100 µM (inactive) | > 100 µM (inactive) | –
10 | O=C(O)C(C1NCCS1)N1Cc2ccccc2C1 (stereo not given) | > 100 µM (inactive) | > 100 µM (inactive) | > 100 µM (inactive) | > 100 µM (inactive) | – | > 100 µM (inactive) | > 100 µM (inactive) | > 100 µM (inactive) | – | > 100 µM (inactive) | > 100 µM (inactive) | > 100 µM (inactive) | > 100 µM (inactive) | > 100 µM (inactive) | > 100 µM (inactive) | > 100 µM (inactive) | > 100 µM (inactive) | > 100 µM (inactive) | > 100 µM (inactive) | > 100 µM (inactive)
11 | CCOC(=O)C1=NOC2(C=C(Br)C(=O)C(Br)=C2)C1 | 22 µM (inactive) | 0.923 µM (active) | 5.21 µM (inactive) | 2.22 µM (inactive) | 1.79 µM (inactive) | 13.4 µM (inactive) | 2.45 µM (inactive) | 1.76 µM (inactive) | 0.335 µM (active) | 2.97 µM (inactive) | 1.8 µM (inactive) | 15.5 µM (inactive) | 2.36 µM (inactive) | 0.37 µM (active) | 1.21 µM (inactive) | 0.902 µM (active) | 9.93 µM (inactive) | 3.7 µM (inactive) | 1.82 µM (inactive) | –
12 | O=C1C(CN2CCCCC2)CCCC1CN1CCCCC1 (stereo not given) | > 92 µM (inactive) | 18 µM (inactive) | 16.4 µM (inactive) | 16.2 µM (inactive) | 51.3 µM (inactive) | 37 µM (inactive) | 2.53 µM (inactive) | 17 µM (inactive) | – | 18.5 µM (inactive) | 14.4 µM (inactive) | – | 32.7 µM (inactive) | 5.45 µM (inactive) | 1.64 µM (inactive) | – | > 100 µM (inactive) | > 55.7 µM (inactive) | – | 15.3 µM (inactive)
13 | Oc1ccccc1C1=NOC(c2ccc(C(F)(F)F)cc2)C1 (stereo not given) | > 50 µM (inactive) | > 50 µM (inactive) | > 50 µM (inactive) | > 50 µM (inactive) | > 50 µM (inactive) | > 50 µM (inactive) | 0.665 µM (active) | > 50 µM (inactive) | > 50 µM (inactive) | > 50 µM (inactive) | > 50 µM (inactive) | > 50 µM (inactive) | > 50 µM (inactive) | > 50 µM (inactive) | 0.92 µM (active) | – | > 50 µM (inactive) | > 50 µM (inactive) | – | –
14 | CC(C)=NOC(=O)OC[C@H]1O[C@@H](n2cnc3c(N)ncnc32)C(O)C1O (stereo not given in full) | > 100 µM (inactive) | > 100 µM (inactive) | > 100 µM (inactive) | > 100 µM (inactive) | > 100 µM (inactive) | > 100 µM (inactive) | 91.6 µM (inactive) | 82.6 µM (inactive) | > 100 µM (inactive) | > 100 µM (inactive) | > 100 µM (inactive) | > 100 µM (inactive) | > 100 µM (inactive) | 89.3 µM (inactive) | > 100 µM (inactive) | > 100 µM (inactive) | > 100 µM (inactive) | > 10 µM (inactive) | – | > 100 µM (inactive)
15 | O=Cc1coc2ccccc2c1=O | 25.1 µM (inactive) | 19.5 µM (inactive) | 15.6 µM (inactive) | 22.4 µM (inactive) | – | 24.2 µM (inactive) | 19.2 µM (inactive) | 18.5 µM (inactive) | 19.1 µM (inactive) | 16 µM (inactive) | 13.8 µM (inactive) | 17.9 µM (inactive) | 19.5 µM (inactive) | 18.5 µM (inactive) | 48.1 µM (inactive) | 17.7 µM (inactive) | 21.3 µM (inactive) | 19.9 µM (inactive) | – | –
